Experimental data as given in the METLIN SMRT retention time set (Domingo-Almenara et al. 2019).

Test: gradient 5% acetonitrile 3 min, to 50% in 2 min, to 85% in 15 min, held 3 min, 100 µL/min
Settings: column: Zorbax Extend-C18 2.1 x 50 mm; eluents: water / acetonitrile, 0.1% formic acid
Procedure, shortened: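 Standards, all pure, were combined into mixtures of ~100 molecules and run at 100 μL/min on a Zorbax Extend-C18 column (2.1 × 50 mm, 1.8 μm) with water and acetonitrile, each containing 0.1% formic acid. A coupled quadrupole time-of-flight mass spectrometer operated in positive and negative ionization mode. Retention time values come from computationally picked adduct peaks, each inspected manually.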

| Compound | RP-LC retention time |
| --- | --- |
| O=C(CSc1nccn1-c1cccc(C(F)(F)F)c1)Nc1nccs1 | 728 s |
| CN(C1CCc2nn(CC3CC3)c(=O)n2CC1)S(=O)(=O)c1cccnc1 (configuration not stated) | 659 s |
| C[C@@H]1C[C@H]2[C@@H]3C[C@H](F)C4=CC(=O)C(Cl)=C[C@]4(C)[C@@]3(F)[C@@H](O)C[C@]2(C)[C@@]1(O)C(=O)CO | 847 s |
| Cc1nc(CC(=O)Nc2nc(-c3ccccc3)c(C)s2)cs1 | 894 s |
| O=C(CSc1ccc2nnc(-c3cccs3)n2n1)NCc1ccc(F)cc1 | 655 s |
| CCN(Cc1ccc(OC)cc1)Cc1cc(=O)n2cccc(C)c2n1 | 618 s |
| COc1ccc(CN2CCC3(CC2)CC(C)(O)CCO3)c(OC)c1 (configuration not stated) | 607 s |
| CCN1CCN(c2nc(-c3cccnc3)nc3ccccc23)CC1 | 524 s |
| Brc1cccc(-c2nnc(Cc3nc(-c4ccccc4)no3)o2)c1 | 1080 s |
| O=C(c1c[nH]c2ncccc12)N1CCCC1 | 589 s |
| C=CCN1CC[C@]23CCCCC2[C@H]1Cc1ccc(O)cc13 (some centres not stated) | 691 s |
| Nc1cccc(-c2ccc(N3CCOCC3)nn2)c1 | 546 s |
| CC1(CNC(=O)NCc2cccc(F)c2)CCOCC1 | 684 s |
| Cc1oc(-c2[nH]ncc2C(=O)N2CCCC2)cc1S(=O)(=O)Nc1ccccc1 | 685 s |
| Clc1cccc(CN2CCCN(c3ncccc3-c3nc(C4CC4)no3)CC2)c1 | 723 s |
| CS(=O)(=O)N1CCC(C(=O)Nc2nnc(SCc3ccccn3)s2)CC1 | 554 s |
| COc1cc(OC)cc(C(=O)N2CCCC2c2nc(-c3cccc(C(F)(F)F)c3)no2)c1 (configuration not stated) | 1120 s |
| O=C(c1n[nH]c2c1CCCC2)N1CCn2c(nnc2-c2ccccc2)C1 | 645 s |
| CCCn1cnc2cc(-c3noc(C(C)NS(=O)(=O)c4ccc(C)cc4)n3)ccc21 (configuration not stated) | 731 s |
| C=C(C)Cn1c(CNC(=O)c2ccccc2)nc2ccccc21 | 600 s |
| CC(C)CNC(=O)c1cc(=O)[nH]c2ccccc12 | 729 s |
| O=C(Cn1nc2n(c1=O)CCCC2)NCc1ccc(F)cc1 | 642 s |
| COc1cc(C(O)c2nc3ccccc3s2)cc(OC)c1OC (configuration not stated) | 826 s |

| Compound | RP-LC retention time |
| --- | --- |
| COCc1c(C(=O)O)nnn1-c1ccc(F)c(F)c1 | 723 s |
| COc1ccc(S(=O)(=O)N2CCC(c3cnn(-c4cccc(C)c4)c3)CC2)cc1 | 1130 s |
| Cc1ccc(NC(=O)Cn2cnc3nc(N4CCC(C(=O)NC5CC5)CC4)sc3c2=O)cc1 | 674 s |
| COc1ccc(-c2nc3ncccn3c2Nc2cccc(C)c2)cc1 | 743 s |
| C[C@H]1CN(C(=O)c2c(F)cccc2F)C[C@@H]1c1nc(-c2ccncc2)no1 | 798 s |
| CCC(CC)CN1CCC(n2c(C)cnc2-c2ccccc2)C1 (configuration not stated) | 559 s |
| CCCn1c(=O)sc2cc(S(=O)(=O)N3CCC(C(=O)N4CCCCCC4)CC3)ccc21 | 937 s |
| Cc1noc(-c2ccc(OC3CN(C(=O)Nc4ccccc4)C3)cc2)n1 | 737 s |
| COc1ccc(N2CCN(C(=O)COc3nccc(C)n3)CC2)cc1 | 617 s |
| Cc1ccc(CNC(=O)C2CCN(c3cnc(N4CCCC4)nc3)CC2)cc1 | 680 s |
| Cc1nc(C(=O)Nc2cccc(F)c2)c(C)n1C1CCN(S(C)(=O)=O)CC1 | 706 s |
| O=C(CCn1c(N2CCCC2)nc2ccsc2c1=O)NCc1ccc(F)cc1 | 755 s |
| CN1C(=O)c2cccnc2Sc2cc(NC(=O)C3CCCO3)ccc21 (configuration not stated) | 619 s |
| O=C(Nc1ccc(Br)cc1)N(c1ccccc1)c1ccccc1 | 1040 s |
| CCOC(=O)C1CCN(C(=O)c2cc3sc(C)cc3n2C)CC1 | 951 s |
| CC1=C(c2ccc(F)cc2)S(=O)(=O)N=C1N1CCCN(C(=O)Cc2ccsc2)CC1 | 812 s |
| Clc1ccc(OCc2nn3c(CSc4ccccc4)nnc3s2)cc1 | 1040 s |
| CCc1ccc(C(=O)NC2CCN(c3ccccc3)C2=O)cc1 (configuration not stated) | 811 s |
| CCN(CC)CCCC(C)Nc1nc(C)nc2cc(Cl)ccc12 (configuration not stated) | 769 s |
| Cc1ccc(CN2CCN(C3CCN(C(=O)Nc4ccc5c(c4)OCO5)CC3)C(=O)C2=O)cc1 | 696 s |
| O=C(Cn1c2ccccc2n2c(=O)cc(-c3ccncc3)nc12)NC1CCCC1 | 660 s |
| Cc1nc(NC(=O)Cn2nc3c(cc2=O)CCCC3)sc1C | 721 s |
| COc1ccccc1-c1noc(-c2nnn(Cc3nc(-c4cccc(C)c4)oc3C)c2C)n1 | 1160 s |

| Compound | RP-LC retention time |
| --- | --- |
| O=C(C1=CN(c2cccc(F)c2)c2ccccc2S1(=O)=O)N1CCOCC1 | 730 s |
| CC1(C)CC(=O)c2cn(-c3ccccc3)c(=O)c(C(=O)N3CCN(c4ccccn4)CC3)c2C1 | 622 s |
| Cc1ccccc1C(=O)NCc1nn(C)c2ccccc12 | 857 s |
| CC(C(=O)N1CCC(N2CCc3ccccc32)CC1)c1ccccc1 (configuration not stated) | 1010 s |
| COCCc1noc(-c2nc(-c3ccccc3F)no2)n1 | 926 s |
| CC(C)C(=O)N1CCc2cc(-c3ccc(C(=O)N4CCN(C(=O)c5ccco5)CC4)cc3)ccc21 | 830 s |
| O=C1[C@H]2CN(Cc3ccc(C(F)(F)F)cc3)C[C@H]2C(=O)N1CCc1ccccc1 | 984 s |
| Cc1cnc2c(c1SCC(=O)N(C)c1ccccc1)c(=O)n(C)c(=O)n2C | 769 s |
| COCC1CN(C(C)=O)CC12CCN(C(=O)C1CC=CCC1)CC2 (configuration not stated) | 671 s |
| O=C(Cn1c(=O)n(Cc2cccnc2)c(=O)c2ncccc21)c1ccc2c(c1)OCCO2 | 554 s |
| Cc1ccc(F)c(NS(=O)(=O)c2cc3c(s2)CCN(C(=O)C2CCC2)C3)c1 | 891 s |
| Cc1cccc(-n2c(=O)c3c(cc(C)n3C)n(CC(=O)Nc3ccc(Cl)cc3)c2=O)c1 | 923 s |
| CCCC(=O)O[C@]1(C(=O)CO)CC[C@H]2[C@@H]3CCC4=CC(=O)CC[C@]4(C)[C@H]3[C@@H](O)C[C@@]21C | 1010 s |
| COc1ccc(N2CCN(CCNC(=O)c3ccc(Br)o3)CC2)cc1 | 583 s |
| Cc1nc(C2(C)CCN(S(=O)(=O)c3ccc(C(C)C)cc3)CC2)no1 | 1050 s |
| CCn1ccc2cc(S(=O)(=O)N3CCC(C(=O)N4CCN(c5ccccn5)CC4)CC3)ccc21 | 674 s |
| CC(C)COc1cc(=O)n2c(c1C(=O)NCC1CC1)CCCCC2 | 708 s |
| COc1ccc(-c2noc(C3CC(=O)N(c4ccc(C)c(C)c4)C3)n2)cc1 (configuration not stated) | 1050 s |
| CCCCn1c(=O)c2ccccc2n(Cc2nc(-c3ccc(F)c(Cl)c3)no2)c1=O | 1290 s |
| CCc1ccccc1NC(=O)C1CCCN(c2nc3ccccc3nc2C(F)(F)F)C1 (configuration not stated) | 1200 s |
| CCN1C(=O)COc2ccc(-c3csc(NC(=O)c4cc(OC)cc(OC)c4)n3)cc21 | 1050 s |
